Here are results for six compounds from ChEMBL document CHEMBL3046843, “Synthesis and investigation of anti-inflammatory activity of novel nitric oxide donating hybrid drugs” (Med Chem Res, 2013).

Data set [1] concerns Rattus norvegicus. In words: Anti-inflammatory activity in Rattus norvegicus (rat) assessed as inhibition of carrageenan-induced paw edema at 14 mg/kg, po administered at 1 hr prior to carrageenan-challenge measured after 4 hr relative to control. The format is functional. On the technique in general: Carrageenan injected into the paw causes an acute inflammation.
Data set [2] deals with Rattus norvegicus. The data set is described as follows: Anti-inflammatory activity in Rattus norvegicus (rat) assessed as inhibition of carrageenan-induced paw edema at 14 mg/kg, po administered at 1 hr prior to carrageenan-challenge measured after 3 hr relative to control. The format is functional.
Data set [3] deals with Rattus norvegicus. The data set is described as follows: Ulcerogenic activity in fasted albino Rattus norvegicus (rat) assessed as stomach mucosal injury at 14 mg/kg, po administered QD for 3 days measured on day 4 by electron microscopic analysis. The format is toxicity, organism-based. Further details: dose 14 mg/kg, route oral. The conditions noted are these: in vivo, 72 h.

The nature of data set [4]: Induction of nitric oxide release in phosphate buffer at 10^-4 M after 1 hr at pH 7.4 by Griess method in presence of L-cysteine relative to control. To be noted: pH 7.4, 1 h, 100 µM. The format is physicochemical. For orientation: Nitrite, measured by Griess reagent, commonly stands in for NO production.
The subject of data set [5] is Rattus norvegicus. In words: Ulcerogenic activity in fasted albino Rattus norvegicus (rat) at 14 mg/kg, po administered QD for 3 days measured on day 4. The format is toxicity, organism-based. Further details: dose 14 mg/kg, route oral. To be noted: in vivo, 72 h.
Data set [6] has as its system Mus musculus. In words: Analgesic activity in Mus musculus (mouse) assessed as inhibition of acetic acid-induced writhing at 14 mg/kg, po measured after 25 min relative to control. The format is functional. In general terms: An intraperitoneal irritant provokes the stretching counted in writhing tests.
The test system of data set [7] is Rattus norvegicus. In words: Anti-inflammatory activity in Rattus norvegicus (rat) assessed as inhibition of carrageenan-induced paw edema at 14 mg/kg, po administered at 1 hr prior to carrageenan-challenge measured after 2 hr relative to control. The format is functional.
The test system of data set [8] is Rattus norvegicus. In words: Anti-inflammatory activity in Rattus norvegicus (rat) assessed as inhibition of carrageenan-induced paw edema at 14 mg/kg, po administered at 1 hr prior to carrageenan-challenge measured after 1 hr relative to control. The format is functional.
The subject of data set [9] is Rattus norvegicus. In words: Anti-inflammatory activity in Rattus norvegicus (rat) assessed as inhibition of carrageenan-induced paw edema at 13 mg/kg, po administered at 1 hr prior to carrageenan-challenge measured after 4 hr relative to control. The format is functional.
The test system of data set [10] is Rattus norvegicus. In words: Anti-inflammatory activity in Rattus norvegicus (rat) assessed as inhibition of carrageenan-induced paw edema at 13 mg/kg, po administered at 1 hr prior to carrageenan-challenge measured after 3 hr relative to control. The format is functional.
The test system of data set [11] is Rattus norvegicus. In words: Anti-inflammatory activity in Rattus norvegicus (rat) assessed as inhibition of carrageenan-induced paw edema at 13 mg/kg, po administered at 1 hr prior to carrageenan-challenge measured after 2 hr relative to control. The format is functional.
The test system of data set [12] is Rattus norvegicus. The data set is described as follows: Anti-inflammatory activity in Rattus norvegicus (rat) assessed as inhibition of carrageenan-induced paw edema at 13 mg/kg, po administered at 1 hr prior to carrageenan-challenge measured after 1 hr relative to control. The format is functional.
In data set [13] the test system is Rattus norvegicus. The data set is described as follows: Ulcerogenic activity in fasted albino Rattus norvegicus (rat) at 13 mg/kg, po administered QD for 3 days measured on day 4. The format is toxicity, organism-based. Further details: dose 13 mg/kg, route oral. To be noted: in vivo, 72 h.
Data set [14] has as its system Mus musculus. In words: Analgesic activity in Mus musculus (mouse) assessed as inhibition of acetic acid-induced writhing at 13 mg/kg, po measured after 25 min relative to control. The format is functional.
In data set [15] the test system is Rattus norvegicus. In words: Ulcerogenic activity in fasted albino Rattus norvegicus (rat) assessed as stomach mucosal injury at 13 mg/kg, po administered QD for 3 days measured on day 4 by electron microscopic analysis. The format is toxicity, organism-based. Further details: dose 13 mg/kg, route oral. To be noted: in vivo, 72 h.
Data set [16] relates to Rattus norvegicus. The data set is described as follows: Anti-inflammatory activity in Rattus norvegicus (rat) assessed as inhibition of carrageenan-induced paw edema at 10 mg/kg, po administered at 1 hr prior to carrageenan-challenge measured after 1 hr relative to control. The format is functional.
The test system of data set [17] is Rattus norvegicus. The data set is described as follows: Ulcerogenic activity in fasted albino Rattus norvegicus (rat) at 10 mg/kg, po administered QD for 3 days measured on day 4. The format is toxicity, organism-based. Further details: dose 10 mg/kg, route oral. To be noted: in vivo, 72 h.
Data set [18] has as its system Mus musculus. In words: Analgesic activity in Mus musculus (mouse) assessed as inhibition of acetic acid-induced writhing at 10 mg/kg, po measured after 25 min relative to control. The format is functional.
For data set [19], the system named is Rattus norvegicus. The data set is described as follows: Anti-inflammatory activity in Rattus norvegicus (rat) assessed as inhibition of carrageenan-induced paw edema at 10 mg/kg, po administered at 1 hr prior to carrageenan-challenge measured after 4 hr relative to control. The format is functional.
The test system of data set [20] is Rattus norvegicus. In words: Anti-inflammatory activity in Rattus norvegicus (rat) assessed as inhibition of carrageenan-induced paw edema at 10 mg/kg, po administered at 1 hr prior to carrageenan-challenge measured after 3 hr relative to control. The format is functional.
Data set [21] relates to Rattus norvegicus. The data set is described as follows: Anti-inflammatory activity in Rattus norvegicus (rat) assessed as inhibition of carrageenan-induced paw edema at 10 mg/kg, po administered at 1 hr prior to carrageenan-challenge measured after 2 hr relative to control. The format is functional.
The subject of data set [22] is Rattus norvegicus. In words: Anti-inflammatory activity in Rattus norvegicus (rat) assessed as inhibition of carrageenan-induced paw edema at 12 mg/kg, po administered at 1 hr prior to carrageenan-challenge measured after 4 hr relative to control. The format is functional.
Data set [23] deals with Rattus norvegicus. The data set is described as follows: Anti-inflammatory activity in Rattus norvegicus (rat) assessed as inhibition of carrageenan-induced paw edema at 12 mg/kg, po administered at 1 hr prior to carrageenan-challenge measured after 3 hr relative to control. The format is functional.
Data set [24] concerns Rattus norvegicus. The data set is described as follows: Anti-inflammatory activity in Rattus norvegicus (rat) assessed as inhibition of carrageenan-induced paw edema at 12 mg/kg, po administered at 1 hr prior to carrageenan-challenge measured after 2 hr relative to control. The format is functional.
Data set [25] deals with Rattus norvegicus. The data set is described as follows: Anti-inflammatory activity in Rattus norvegicus (rat) assessed as inhibition of carrageenan-induced paw edema at 12 mg/kg, po administered at 1 hr prior to carrageenan-challenge measured after 1 hr relative to control. The format is functional.
In data set [26] the test system is Rattus norvegicus. In words: Ulcerogenic activity in fasted albino Rattus norvegicus (rat) at 12 mg/kg, po administered QD for 3 days measured on day 4. The format is toxicity, organism-based. On the set-up: dose 12 mg/kg, route oral. To be noted: in vivo, 72 h.
Data set [27] deals with Mus musculus. In words: Analgesic activity in Mus musculus (mouse) assessed as inhibition of acetic acid-induced writhing at 12 mg/kg, po measured after 25 min relative to control. The format is functional.
Data set [28] deals with Mus musculus. In words: Analgesic activity in Mus musculus (mouse) assessed as inhibition of acetic acid-induced writhing at 20 mg/kg, po measured after 25 min relative to control. The format is functional.
The subject of data set [29] is Rattus norvegicus. In words: Anti-inflammatory activity in Rattus norvegicus (rat) assessed as inhibition of carrageenan-induced paw edema at 20 mg/kg, po administered at 1 hr prior to carrageenan-challenge measured after 4 hr relative to control. The format is functional.
Data set [30] concerns Rattus norvegicus. The data set is described as follows: Anti-inflammatory activity in Rattus norvegicus (rat) assessed as inhibition of carrageenan-induced paw edema at 20 mg/kg, po administered at 1 hr prior to carrageenan-challenge measured after 3 hr relative to control. The format is functional.
For data set [31], the system named is Rattus norvegicus. The data set is described as follows: Anti-inflammatory activity in Rattus norvegicus (rat) assessed as inhibition of carrageenan-induced paw edema at 20 mg/kg, po administered at 1 hr prior to carrageenan-challenge measured after 2 hr relative to control. The format is functional.
Data set [32] relates to Rattus norvegicus. In words: Anti-inflammatory activity in Rattus norvegicus (rat) assessed as inhibition of carrageenan-induced paw edema at 20 mg/kg, po administered at 1 hr prior to carrageenan-challenge measured after 1 hr relative to control. The format is functional.

For orientation: inhibition in vivo means the share of the control response that was lost under treatment. For the compound `CC(=O)Nc1ccc(OC(=O)c2ccccc2N(CCO[N+](=O)[O-])c2ccccc2)cc1`, the inhibition in vivo at 14 mg/kg stood at 59.6% in the data set on Rattus norvegicus [1]; 65.8% with Rattus norvegicus [2]; 15.4% in the data set with Mus musculus [6]; 55.2% in the data set on Rattus norvegicus [7]; 26.7% in the data set on Rattus norvegicus [8]. Besides, the Activity entry is on record as “Non-toxic” in the data set with Rattus norvegicus [3], 10.71% in data set [4] and “Non-toxic” in the data set on Rattus norvegicus [5].
Consider `CC(=O)Nc1ccc(OC(=O)c2ccccc2N(CCO[N+](=O)[O-])c2ccc([N+](=O)[O-])cc2)cc1`, for which the inhibition in vivo at 13 mg/kg with Rattus norvegicus [9] is 32.1%; in the data set with Rattus norvegicus [10], 23.3%; in the data set on Rattus norvegicus [11] it was 11.9%; in the data set on Rattus norvegicus [12], 6.67%; in the data set on Mus musculus [14], 13.8%. Besides, the Activity in [4] was 6.98%; with Rattus norvegicus [13], “Non-toxic”; in the data set with Rattus norvegicus [15], “Non-toxic”.
With `CC(=O)Nc1ccc(OC(=O)c2ccccc2N(CCO[N+](=O)[O-])c2ccc(C)cc2)cc1`, the inhibition in vivo at 14 mg/kg with Rattus norvegicus [1] was 36.8%; with Rattus norvegicus [2] it was 24.4%; with Mus musculus [6], 21.8%; with Rattus norvegicus [7], 18%; in the data set with Rattus norvegicus [8], 30%. In addition, the results for the Activity result (with Rattus norvegicus [3]; in data set [4]; in the data set on Rattus norvegicus [5]) were “Non-toxic”, 7.31% and “Non-toxic”, respectively.
Consider `CC(=O)Nc1ccc(OC(=O)c2ccc(N(CCO[N+](=O)[O-])c3ccccc3C(=O)Oc3ccc(NC(C)=O)cc3)cc2)cc1`, for which the inhibition in vivo at 10 mg/kg in the data set with Rattus norvegicus [16] was 11.7%; in the data set on Mus musculus [18] it was 11.2%; in the data set with Rattus norvegicus [19] it was 12.1%; with Rattus norvegicus [20] it was 13.7%; with Rattus norvegicus [21], 18.7%. For the same compound, the Activity in [4] is 2.46%; in the data set with Rattus norvegicus [17] it was “Non-toxic”.
As for `CC(=O)Nc1ccc(OC(=O)c2ccccc2N(CCO[N+](=O)[O-])c2ccc(S(N)(=O)=O)cc2)cc1`, the inhibition in vivo at 12 mg/kg in the data set with Rattus norvegicus [22] came out at 9.41%; with Rattus norvegicus [23] it was 8.46%; in the data set with Rattus norvegicus [24] it was 11.5%; in the data set on Rattus norvegicus [25], 8.33%; in the data set with Mus musculus [27], 26.2%. Further, the Activity in data set [4] was 5.88%; in the data set with Rattus norvegicus [26], “Non-toxic”.
On to `O=C(O)Cc1ccccc1Nc1c(Cl)cccc1Cl` [DICLOFENAC SODIUM], for which the inhibition in vivo at 20 mg/kg was 8.2% in the data set with Mus musculus [28]; 73.4% in the data set on Rattus norvegicus [29]; 73.3% in the data set with Rattus norvegicus [30]; 42.1% in the data set with Rattus norvegicus [31]; 45% with Rattus norvegicus [32].
